What was measured:
[1] = system: GTPase KRas (Homo sapiens), P01116 [G12C]; assay: Binding affinity to human hexahistidine-tagged KRas G12C mutant (1 to 169 residues) expressed in Escherichia coli(BL21 (DE3)) assessed as rate constant for covalent modification by measuring Kobs/[I] at 10 uM by liquid chromatography-electrospray mass spectrometry analysis
[2] = Binding affinity to GppNHp-bound N-terminal His6-tagged KRAS4B G12D mutant (1 to 169 residues) (unknown origin) at 10 uM by 19F NMR Spectroscopy; design: species or system Homo sapiens
[3] = Binding affinity to GppNHp-bound N-terminal His6-tagged KRAS4B G12D mutant (1 to 169 residues) (unknown origin) by isothermal titration calorimetry; design: species or system Homo sapiens
[4] = Binding affinity to GppNHp-bound N-terminal His6-tagged KRAS4B G12D mutant (1 to 169 residues) (unknown origin) by microscale thermophoresis; design: species or system Homo sapiens
DLD-1 [5] = assay: Antiproliferative activity against human DLD-1 cells; type: functional, cell-based
DLD-1 [6] = assay: Antiproliferative activity against human DLD-1 cells harboring KRAS G13D mutant incubated for 72 hrs by CellTitreGlo assay; type: functional, cell-based; conditions: DLD-1, 72 h
GTPase KRas [7] = target: T1, GTPase KRas (Homo sapiens, UniProt P01116); assay: Inhibition of KRas activation in HEK 293T-REx Flp-In cells harboring Venus-RBD-CRD/mCherry-CAAX assessed as reduction in Venus-RBD-CRD recruitment to plasma membrane by inverted confocal microscopy; design: species or system Flp-In-T-REx-293
GTPase KRas [8] = target: T1, GTPase KRas; assay: Inhibition of GDP-bound KRas activation (unknown origin) expressed in Escherichia coli Rosetta2 (DE3) cells assessed as reduction in SOS-catalyzed nucleotide exchange at 1 mM in presence of BODIPY-GTP by fluorescence method relative to control
GTPase KRas [9] = target: GTPase KRas (Homo sapiens, UniProt P01116, G12D); assay: Binding affinity to 15N-labelled GDP bound KRas G12D mutant ( 1 to 169 residues) (unknown origin) expressed in Escherichia coli Rosetta 2 (DE3) cells by 1H/15N- HSQC spectroscopy
[10] = system: GTPase KRas (Homo sapiens), P01116 [G12C]; assay: Covalent binding affinity to GDP-loaded hexahistidine-tagged KRas G12C mutant (1 to 169 residues) (unknown origin) expressed in Escherichia coli assessed as rate constant by liquid chromatography-electrospray mass spectrometry analysis
[11] = Oral bioavailability in BALB/c mouse at 10 mg/kg by LC-MS/MS analysis; type: ADME, organism-based; conditions: in vivo
A549 = assay: Antiproliferative activity against human A549 cells incubated for 3 days by CellTiter-Glo assay; type: functional, cell-based; conditions: A549, 72 h
DLD-1 [12] = assay: Antiproliferative activity against human DLD-1 cells incubated for 72 hrs by CellTitreGlo assay; type: functional, cell-based; conditions: DLD-1, 72 h
NCI-H358 = assay: Antiproliferative activity against human NCI-H358 cells incubated for 14 days by alamar blue dye based assay; type: functional, cell-based; conditions: NCI-H358, 336 h

With `C=CC(=O)N1CCN(c2ncnc3c(F)c(-c4c(O)cccc4F)c(Cl)cc23)CC1` (atropisomer S) the K [1] was 1100 M⁻¹ s⁻¹.

With `NC1(C(=O)NCCCn2cc(-c3ccc(OC(F)(F)F)cc3)c3cc(CN4CCN(Cc5c(Cl)cccc5Cl)CC4)ccc32)CCNCC1` the Kd [2] was 9 µM, the Kd [3] was 9 µM and the Kd [4] was 9 µM. For the same compound, the IC50 (DLD-1 [5]) was 8.8 µM.

Work on `C=CC(=O)N1CCN(c2ncnc3cc(-c4ccccc4O)c(Cl)cc23)CC1` yielded a K [1] of 12 M⁻¹ s⁻¹.

`COc1nc(-c2cccc3c2OCCO3)ccc1Nc1ccc(CN(C)C)cc1` gave an IC50 (DLD-1 [6]) of 8 µM.

Compound `Cc1[nH]c2cc(Cl)cc(Cl)c2c1CCN` has an EC50 (GTPase KRas [7]) of 15.8 µM.

With `CC[C@H](C)[C@H](N)C(=O)Nc1ccc2nc(Cc3c[nH]c4ccccc34)[nH]c2c1` the inhibition (GTPase KRas [8]) was 78%.

`c1ccc2c(Cc3nc4ccncc4[nH]3)c[nH]c2c1` showed a Kd (GTPase KRas [9]) of 1300 µM.

With `C=CC(=O)N1CC(N2CCN(C(=O)CNc3cc(C4(C)CC4)c(Cl)cc3O)CC2)C1` the K [10] was 76 M⁻¹ s⁻¹, the K [1] was 140 M⁻¹ s⁻¹ and the bioavailability [11] was > 60%.

With `CCCC(CCC)COC(=O)[C@@H](C)NP(=O)(OCCNC(=O)CCl)OP(=O)(O)OC[C@H]1O[C@@H](n2cnc3c(=O)[nH]c(N)nc32)[C@H](O)[C@@H]1O` (stereo partly specified) the EC50 (A549) was 43.8 µM.

Compound `COc1cccc(-c2ccc(Nc3ccc(CN(C)C)cc3)c(OC)c2F)c1` has an IC50 (DLD-1 [12]) of 4.5 µM.

Work on `Cn1cnc(Cn2ccc3ccc(CNCc4[nH]c5ccccc5c4[C@H]4NC(=O)c5ccc(O)cc54)cc32)c1` yielded an IC50 (NCI-H358) of 6.7 µM.

— ChEMBL document CHEMBL4673313, “Small-Molecule Inhibitors Directly Targeting KRAS as Anticancer Therapeutics” (J Med Chem, 2020)
